System: DMPG lipid bilayer supported on MS-PPE
Experiment: Superquenching flow cytometric assay for disruption of DMPG lipid bilayer supported on MS-PPE
Assay type: biochemical
Procedure: Lipid bilayers were disrupted by adding TRITON X-100 detergent to the bead suspension to a final concentration of 0.25% (w/v).
Bead suspensions of 2.5×10^5 DMPG-coated MS-PPE in 200 μL of PBS were analyzed using a FACScan flow cytometer (Becton-Dickinson, Sunnyvale, Calif.) with excitation at 488 nm. Fluorescence signals were acquired on FL-1 channel (525 nm) using log amplification and analyzed with the CellQuest software. Kinetic analysis of disruption of supported lipid bilayer by melittin was performed by acquiring real-time data with continuous mixing of samples (10^6 MS-PPE in 800 μl of PBS) using a magnetic stirrer. The raw data were analyzed using IDL Query software developed by Bruce Edwards (Cancer Center, University of New Mexico, Albuquerque, N. Mex.).
Because an anionic lipid was used to form a lipid bilayer around MS-PPE, it was expected that MLT will disrupt the DMPG lipid bilayer by such a detergent-like action. This was tested by adding 10 μM AQS to DMPG-coated MS-PPE followed by treatment with one of the following: TRITON X-100 detergent, synthetic MLT (sMLT), or natural MLT (nMLT) and immediately reading the fluorescence by flow cytometry. […] These histograms resemble the ones reported previously for MS-PPE, without a lipid coating, in absence and in presence of AQS.
From FIG. 18, the association constant (corresponding to the reciprocal of the point of half saturation) for nMLT and sMLT with DMPG were 5×10^6 M^−1 and 1.7×10^6 M^−1, respectively. […] Lower concentrations of nMLT, in comparison to sMLT, were required to disrupt the DMPG lipid bilayer. This might be attributed to the fact that nMLT contains some phospholipase A2 (PLA2) as a contaminant. PLA2 has a high affinity for anionic phospholipids, with an association constant of 0.5×10^10 M^−1 (Kim et al., Anal. Chem. 250, 109-116 (1997)), which is about 3000 fold higher than that of MLT. Although PLA2 activity requires calcium, which is not present in the experimental system, it has been reported that even upon addition of EDTA to natural MLT, PLA2 maintains its activity, probably due to formation of a tight complex with calcium with PLA2 (Dempsey, C. E. Biochim. Biophys. Acta 1990, 1031, 143-161).
The kinetics of disruption of supported lipid bilayer by MLT were monitored by measuring real-time changes in fluorescence intensity by flow cytometry (FIG. 19). Suspensions of 10^6 DMPG-coated MS-PPE in 800 μL of PBS were treated with AQS at a final concentration of 10 μM, then with either sMLT, TRITON X-100 detergent, or no treatment. […] Treatment with sMLT in the absence of AQS led to an increase in normalized fluorescence (FIG. 19, trace A). This can be attributed to disruption of the lipid bilayer by sMLT, and is consistent with a reversal of the slight quenching of fluorescence caused by the formation of a DMPG lipid bilayer over MS-PPE. Addition of AQS alone to DMPG-coated MS-PPE (FIG. 19, trace C) led to a 20% reduction in fluorescence as reported earlier. Addition of TRITON X-100 detergent to DMPG-coated MS-PPE after the addition of AQS (first dip in trace E, FIG. 19) caused immediate decrease in fluorescence to ˜10% of its original value (second dip in trace E, FIG. 19). In contrast, addition of sMLT, after the addition of AQS, (FIG. 19, trace D) led to a gradual reduction of fluorescence intensity to ˜20% of the original value. Although MLT forms dimers at high concentrations (Dempsey, C. E. Biochim. Biophys. Acta 1990, 1031, 143-161), it is monomeric at the concentrations used in this study. On the other hand, TRITON X-100 detergent forms micelles at the concentration used in this study.

## TRITON X-100
0.25% (w/v) TRITON X-100, 10 μM AQS, Example 2
  fluorescence after disruption of the lipid bilayer, % of the original fluorescence value: ~10%
0.25% (w/v) TRITON X-100, 10 μM AQS, Example 3
  fluorescence after disruption, % of the fluorescence of DMPG-coated MS-PPE in the absence of quencher: ~18%
10^6 DMPG-coated MS-PPE in 800 μL PBS, after 10 μM AQS
  fluorescence intensity after addition, % of original value (real-time kinetics): ~10%

Source: patent US8465983B1, “Detection and delivery systems utilizing supported lipid bilayers” (priority 2005, dated 2013)
